Experimental data: ChEMBL document CHEMBL1149644, “alpha,alpha-Cyclic aminoacids as useful scaffolds for the preparation of hNK(2) receptor antagonists” (Bioorg Med Chem Lett, 2007)
In brackets after ≈: the same amount, converted by molar mass.

Assays:
Substance-K receptor [1] = molecular target: T1, Substance-K receptor (Cavia porcellus, UniProt Q64077); test: […] activity at NK2 receptor in guinea pig smooth muscle; format: functional
T1 sequence (Q64077 whole entry): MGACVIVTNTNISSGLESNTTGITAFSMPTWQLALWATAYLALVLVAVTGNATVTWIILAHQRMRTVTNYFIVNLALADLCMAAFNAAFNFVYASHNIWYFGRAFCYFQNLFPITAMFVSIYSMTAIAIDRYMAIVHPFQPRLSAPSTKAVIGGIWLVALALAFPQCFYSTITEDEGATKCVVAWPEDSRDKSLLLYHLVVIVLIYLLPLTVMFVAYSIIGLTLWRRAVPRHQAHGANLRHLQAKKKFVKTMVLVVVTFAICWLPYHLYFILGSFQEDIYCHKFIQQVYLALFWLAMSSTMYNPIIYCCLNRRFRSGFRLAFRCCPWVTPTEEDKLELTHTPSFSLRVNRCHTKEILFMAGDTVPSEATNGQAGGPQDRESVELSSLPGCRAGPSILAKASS

Substance-K receptor [2] = molecular target: T2, Substance-K receptor (Homo sapiens, UniProt P21452); test: Displacement of [125I]NKA from human NK2 expressed in CHO-K1 cells; format: cell-based
T2 sequence (P21452 whole entry): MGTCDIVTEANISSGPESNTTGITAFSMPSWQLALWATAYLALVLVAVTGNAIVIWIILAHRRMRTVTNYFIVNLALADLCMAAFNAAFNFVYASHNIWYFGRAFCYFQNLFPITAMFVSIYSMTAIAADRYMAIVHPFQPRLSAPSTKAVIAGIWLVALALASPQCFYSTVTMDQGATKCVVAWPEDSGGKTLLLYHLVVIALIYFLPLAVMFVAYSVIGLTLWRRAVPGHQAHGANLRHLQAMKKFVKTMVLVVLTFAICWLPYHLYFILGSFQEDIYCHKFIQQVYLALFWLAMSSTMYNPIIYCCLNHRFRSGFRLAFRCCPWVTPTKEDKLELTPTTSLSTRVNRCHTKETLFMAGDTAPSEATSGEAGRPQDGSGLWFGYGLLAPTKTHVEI

[3] = Solubility at pH 7.4; format: physicochemical; details: buffer
[4] = Metabolic stability in guinea pig liver S9 fraction after 30 mins; format: ADME, subcellular, Cavia porcellus; details: read-out: Stability

| Ki (Substance-K receptor [2]) [nM] | SMILES | other results |
| --- | --- | --- |
| 2 | O=C(NC1(C(=O)N[C@H](Cc2ccccc2)C(=O)NCCCN2CCOCC2)Cc2ccccc2C1)c1cc2ccccc2s1 | Ki (Substance-K receptor [1]): 100 nM |
| 100 | CC(C)(NC(=O)c1cc2ccccc2s1)C(=O)N[C@@H](Cc1ccccc1)C(=O)NCCOCCOCCN |  |
| 316 | CC(C)C[C@H](NC(=O)[C@@H](Cc1ccccc1)NC(=O)C1(NC(=O)c2cc3ccccc3s2)CCCCC1)C(N)=O |  |
| 100 | CCN(CC)CCCNC(=O)C(Cc1ccccc1)NC(=O)C1(NC(=O)c2cc3ccccc3s2)CCCCC1 (stereo unspecified) |  |
|  | CCCCN(CCCC)CCCNC(=O)[C@@H](Cc1ccccc1)NC(=O)C1(NC(=O)c2cc3ccccc3s2)CCCCC1 | Ki (Substance-K receptor [1]): 200 nM |
| 20 | NCCOCCOCCNC(=O)[C@H](Cc1ccccc1)NC(=O)C1(NC(=O)c2cc3ccccc3s2)Cc2ccccc2C1 |  |
|  | O=C(NC1(C(=O)N[C@H](Cc2ccccc2)C(=O)NCCCN2CCOCC2)CCCC1)c1cc2ccccc2s1 | solubility [3]: 100 µg/mL (≈ 178 µM); remaining at 0.5 h [4]: 4% |
| 12.6 | NCCOCCOCCNC(=O)[C@H](Cc1ccccc1)NC(=O)C1(NC(=O)c2cc3ccccc3s2)CCc2ccccc21 (stereo partly specified) |  |
| 0.398 | CC1CCCCN1CCCNC(=O)[C@@H](Cc1ccccc1)NC(=O)C1(NC(=O)c2cc3ccccc3s2)CCCCC1 (stereo partly specified) | Ki (Substance-K receptor [1]): 200 nM |
| 2 | CN1CCN(CCCNC(=O)[C@@H](Cc2ccccc2)NC(=O)C2(NC(=O)c3cc4ccccc4s3)CCCC2)CC1 |  |
| 1.26 | O=C(NC1(C(=O)N[C@H](Cc2ccccc2)C(=O)NCCCN2CCCC2)Cc2ccccc2C1)c1cc2ccccc2s1 | Ki (Substance-K receptor [1]): 200 nM |
| 100 | O=C(NC1(C(=O)NC(Cc2ccccc2)C(=O)NCCN2CCOCC2)CCCCC1)c1cc2ccccc2s1 (stereo unspecified) |  |
| 6.31 | O=C(NC1(C(=O)N[C@H](Cc2ccccc2)C(=O)NCCCN2CCCC2)CCc2ccccc21)c1cc2ccccc2s1 (stereo in doubt; 46a) |  |
| 3.98 | O=C(NC1(C(=O)N[C@H](Cc2ccccc2)C(=O)NCCCN2CCCC2)CCCCC1)c1cc2ccccc2s1 | Ki (Substance-K receptor [1]): > 1000 nM |
| 7.94 | CC1CCCCN1CCCNC(=O)[C@H](Cc1ccccc1)NC(=O)C1(NC(=O)c2cc3ccccc3s2)CCCCC1 (stereo partly specified) | Ki (Substance-K receptor [1]): > 3160 nM |
| 12.6 | NCCOCCOCCNC(=O)[C@H](Cc1ccccc1)NC(=O)C1(NC(=O)c2cc3ccccc3s2)CCCCC1 |  |
| 1.58 | CCCCN(CCCC)CCCNC(=O)[C@@H](Cc1ccccc1)NC(=O)C1(NC(=O)c2cc3ccccc3s2)CCc2ccccc21 (stereo in doubt; 45b) |  |
| 398 | NCCCCCNC(=O)[C@H](Cc1ccccc1)NC(=O)C1(NC(=O)c2cc3ccccc3s2)CCCCC1 |  |
| 50.1 | CN1CCCC1CCCNC(=O)C(Cc1ccccc1)NC(=O)C1(NC(=O)c2cc3ccccc3s2)CCCCC1 (stereo unspecified) |  |
| 1 | CN1CCN(CCCNC(=O)[C@@H](Cc2ccccc2)NC(=O)C2(NC(=O)c3cc4ccccc4s3)CCc3ccccc32)CC1 (stereo in doubt; 48b) | Ki (Substance-K receptor [1]): 25.1 nM |
| 126 | NCCCCCCCCNC(=O)C(Cc1ccccc1)NC(=O)C1(NC(=O)c2cc3ccccc3s2)CCCCC1 (stereo unspecified) |  |
| 100 | NCCCCCCCNC(=O)C(Cc1ccccc1)NC(=O)C1(NC(=O)c2cc3ccccc3s2)CCCCC1 (stereo unspecified) |  |
| 1.58 | CCCCN(CCCC)CCCNC(=O)[C@@H](Cc1ccccc1)NC(=O)C1(NC(=O)c2cc3ccccc3s2)Cc2ccccc2C1 | Ki (Substance-K receptor [1]): 200 nM |
| 100 | CN1CCN(CCCNC(=O)[C@H](Cc2ccccc2)NC(=O)C2(NC(=O)c3cc4ccccc4s3)CCCCC2)CC1 |  |

| Ki (Substance-K receptor [2]) [nM] | SMILES | other results |
| --- | --- | --- |
| 70.8 | CC(C)C[C@@H](NC(=O)[C@H](Cc1ccccc1)NC(=O)C1(NC(=O)c2cc3ccccc3s2)CCCCC1)C(N)=O |  |
| 398 | NCCOCCOCCNC(=O)[C@H](Cc1ccccc1)NC(=O)C1(NC(=O)c2cc3ccccc3s2)CCc2ccccc2C1 (stereo partly specified) |  |
| 31.6 | CCCCN(CCCC)CCCNC(=O)[C@@H](Cc1ccccc1)NC(=O)C1(NC(=O)c2cc3ccccc3s2)CCc2ccccc21 (stereo in doubt; 45a) |  |
| 100 | O=C(NC1(C(=O)N[C@H](Cc2ccccc2)C(=O)NCCCN2CCOCC2)CCc2ccccc21)c1cc2ccccc2s1 (stereo in doubt; 47a) |  |
| 25.1 | O=C(NC1(C(=O)N[C@@H](Cc2ccccc2)C(=O)NCCCN2CCOCC2)CCCCC1)c1cc2ccccc2s1 |  |
|  | O=C(NC1(C(=O)N[C@H](Cc2ccccc2)C(=O)NCCCN2CCOCC2)CCCCC1)c1cc2ccccc2s1 | Ki (Substance-K receptor [1]): 100 nM |
| 100 | CCN(CC)CCNC(=O)C(Cc1ccccc1)NC(=O)C1(NC(=O)c2cc3ccccc3s2)CCCCC1 (stereo unspecified) |  |
| 1.26 | O=C(NC1(C(=O)N[C@H](Cc2ccccc2)C(=O)NCCCN2CCCC2)CCc2ccccc21)c1cc2ccccc2s1 (stereo in doubt; 46b) |  |
| 316 | O=C(NC1(C(=O)N[C@@H](Cc2ccccc2)C(=O)NC2CC2)CCCCC1)c1cc2ccccc2s1 |  |
| 31.6 | CC(C)N(CCNC(=O)C(Cc1ccccc1)NC(=O)C1(NC(=O)c2cc3ccccc3s2)CCCCC1)C(C)C (stereo unspecified) |  |
| 316 | CN(C)CCCNC(=O)[C@H](Cc1ccccc1)NC(=O)C1(NC(=O)c2cc3ccccc3s2)CCCCC1 |  |
| 50.1 | CC(C)C[C@@H](NC(=O)[C@@H](Cc1ccccc1)NC(=O)C1(NC(=O)c2cc3ccccc3s2)CCCCC1)C(N)=O |  |
| 10000 | CC(C)C[C@H](NC(=O)[C@H](Cc1ccccc1)NC(=O)C1(NC(=O)c2cc3ccccc3s2)CCCCC1)C(N)=O |  |
| 20 | O=C(NC1(C(=O)N[C@@H](Cc2ccccc2)C(=O)NCCCN2CCCC2)CCCCC1)c1cc2ccccc2s1 |  |
| 50.1 | NCCOCCOCCNC(=O)[C@H](Cc1ccccc1)NC(=O)C1(NC(=O)c2cc3ccccc3s2)CCCC1 |  |
| 63.1 | O=C(NC1(C(=O)NC(Cc2ccccc2)C(=O)NCCN2CCCCC2)CCCCC1)c1cc2ccccc2s1 (stereo unspecified) |  |
| 6.31 | CCCCN(CCCC)CCCNC(=O)[C@H](Cc1ccccc1)NC(=O)C1(NC(=O)c2cc3ccccc3s2)CCCCC1 |  |
| 3.98 | CN1CCN(CCCNC(=O)[C@@H](Cc2ccccc2)NC(=O)C2(NC(=O)c3cc4ccccc4s3)CCCCC2)CC1 |  |
| 2 | O=C(NC1(C(=O)N[C@H](Cc2ccccc2)C(=O)NCCCN2CCOCC2)CCc2ccccc21)c1cc2ccccc2s1 (stereo in doubt; 47b) | Ki (Substance-K receptor [1]): 20 nM |
| 251 | NCCCCCCNC(=O)C(Cc1ccccc1)NC(=O)C1(NC(=O)c2cc3ccccc3s2)CCCCC1 (stereo unspecified) | Ki (Substance-K receptor [1]): > 1000 nM |
| 39.8 | CCN(CC)CCCNC(=O)[C@H](Cc1ccccc1)NC(=O)C1(NC(=O)c2cc3ccccc3s2)CCCCC1 |  |
| > 100 | CN1CCN(CCCNC(=O)[C@@H](Cc2ccccc2)NC(=O)C2(NC(=O)c3cc4ccccc4s3)CCc3ccccc32)CC1 (stereo in doubt; 48a) |  |
| 126 | NCc1ccc(CNC(=O)[C@H](Cc2ccccc2)NC(=O)C2(NC(=O)c3cc4ccccc4s3)CCCCC2)cc1 |  |
| 2.51 | CN1CCN(CCCNC(=O)[C@@H](Cc2ccccc2)NC(=O)C2(NC(=O)c3cc4ccccc4s3)Cc3ccccc3C2)CC1 | Ki (Substance-K receptor [1]): 126 nM |

| SMILES | Ki (Substance-K receptor [2]) [nM] | other results |
| --- | --- | --- |
| CCC(CC)(NC(=O)c1cc2ccccc2s1)C(=O)N[C@@H](Cc1ccccc1)C(=O)NCCOCCOCCN | > 1000 |  |
| NCCOCCOCCNC(=O)[C@H](Cc1ccccc1)NC(=O)CNC(=O)c1cc2ccccc2s1 | > 10000 |  |
